Tests used:
CYPIR (Rice Flatsedge) = assay: Postemergence weed control under flooded paddy conditions; assay type: in vivo, Cyperus iria; conditions: postemergence weeds, 3-4 weeks after treatment
How it was run: (§1)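 Injury ratings (0–9 scale covering stand, vigor, malformation, size, chlorosis and overall appearance versus control) were made three to four weeks after treatment. Test material, about 0.0313 to 0.500 kg/ha a.i. in 50/50 v/v aqueous/acetone, was added to flood water 1.5 to 3 cm deep over 3 to 5 cm weeds and 1.5 to 2.5 leaf rice.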

ABUTH (Velvetleaf) [1] = assay: Preemergence herbicidal evaluation; assay type: in vivo, Abutilon theophrasti; conditions: rated 4-5 weeks after treatment
How it was run: (§2)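 Each species is sown separately in potting soil over roughly an inch of soil before any emergence. The soil surface then receives an aqueous acetone spray delivering about 0.0156 to 0.500 kg/ha of compound. After four to five weeks, injury is scored from 0 to 9 relative to a control.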

ABUTH (Velvetleaf) [2] = assay: Postemergence herbicidal evaluation; assay type: in vivo, Abutilon theophrasti; conditions: postemergence
How it was run: (§3)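 ~2-wk seedlings; postemergence spray, 40 psi; vehicle 1:1 acetone:water + 0.5% Tween 20; rate ≈0.0156–0.500 kg/ha; greenhouse hold; scored 4–5 wk after treatment, 0–9 scale vs control; repeat tests averaged.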

[3] = system: IPOHE (Morningglory, Ivyleaf); assay: Postemergence herbicidal evaluation; assay type: in vivo, Ipomoea hederacea; conditions: postemergence
How it was run: as §3

[4] = system: CHEAL (Lambsquarters, Common); assay: Preemergence herbicidal evaluation; assay type: in vivo, Chenopodium album; conditions: rated 4-5 weeks after treatment
How it was run: as §2

ECHCG (Barnyardgrass) [5] = assay: Preemergence herbicidal evaluation; assay type: in vivo, Echinochloa crus-galli; conditions: rated 4-5 weeks after treatment
How it was run: as §2

[6] = system: TRZAWR (Wheat, Winter, cv Riband); assay: Preemergence herbicidal evaluation; assay type: in vivo, Triticum aestivum; conditions: rated 4-5 weeks after treatment
How it was run: as §2

SETVI (Foxtail, Green) = assay: Postemergence herbicidal evaluation; assay type: in vivo, Setaria viridis; conditions: postemergence
How it was run: as §3

CASOB (Sicklepod) = assay: Preemergence herbicidal evaluation; assay type: in vivo, Cassia obtusifolia; conditions: rated 4-5 weeks after treatment
How it was run: as §2

CYPSE (Flatsedge) = assay: Postemergence weed control under flooded paddy conditions; assay type: in vivo, Cyperus serotinus; conditions: postemergence weeds, 3-4 weeks after treatment
How it was run: as §1

ZEAMX (Corn, Field) [7] = assay: Preemergence herbicidal evaluation; assay type: in vivo, Zea mays; conditions: rated 4-5 weeks after treatment
How it was run: as §2

[8] = system: IPOHE (Morningglory, Ivyleaf); assay: Preemergence herbicidal evaluation; assay type: in vivo, Ipomoea hederacea; conditions: rated 4-5 weeks after treatment
How it was run: as §2

ORYSAT (Rice, Tebonnet) = assay: Postemergence herbicidal evaluation; assay type: in vivo, Oryza sativa, (L.) Tebonnet; conditions: postemergence
How it was run: as §3

[9] = system: CHEAL (Lambsquarters, Common); assay: Postemergence herbicidal evaluation; assay type: in vivo, Chenopodium album; conditions: postemergence
How it was run: as §3

ECHCG (Barnyardgrass) [10] = assay: Postemergence herbicidal evaluation; assay type: in vivo, Echinochloa crus-galli; conditions: postemergence
How it was run: as §3

[11] = system: GLXMAW (Soybean, Williams); assay: Preemergence herbicidal evaluation; assay type: in vivo, Glycine max, (L.) Merr. cv Williams; conditions: rated 4-5 weeks after treatment
How it was run: as §2

ZEAMX (Corn, Field) [12] = assay: Postemergence herbicidal evaluation; assay type: in vivo, Zea mays; conditions: postemergence
How it was run: as §3

## CCOC(=O)CN1C(=O)C(=C(C)C)S/C1=N/c1cc(-n2c(=O)cc(C(F)(F)F)n(C)c2=O)c(F)cc1Cl [Compound 20, Ethyl 2-{{2-chloro-5-[3,6-dihydro-3-methyl-2,6-dioxo-4-(trifluoromethyl)-1(2H)-pyrimidinyl]-4-fluorophenyl}imino}-5-isopropylidene-4-oxo-3-thiazolidineacetate]
CYPIR (Rice Flatsedge); rate 0.1160 kg/ha
  Herbicidal rating CYPIR: 0.0
CYPIR (Rice Flatsedge); rate 0.2310 kg/ha
  Herbicidal rating CYPIR: 0.0
CYPIR (Rice Flatsedge); rate 0.4630 kg/ha
  Herbicidal rating CYPIR: 0.0
ABUTH (Velvetleaf) [1]; rate 0.0625 kg/ha
  ABUTH preemergence herbicidal rating: 0.0
ABUTH (Velvetleaf) [1]; rate 0.1250 kg/ha
  ABUTH preemergence herbicidal rating: 9.0
ABUTH (Velvetleaf) [1]; rate 0.2500 kg/ha
  ABUTH preemergence herbicidal rating: 9.0
ABUTH (Velvetleaf) [2]; rate 0.0158 kg/ha
  ABUTH herbicidal rating: 9.0
ABUTH (Velvetleaf) [2]; rate 0.0315 kg/ha
  ABUTH herbicidal rating: 9.0
ABUTH (Velvetleaf) [2]; rate 0.0630 kg/ha
  ABUTH herbicidal rating: 9.0
[3]; rate 0.0158 kg/ha
  IPOHE herbicidal rating: 9.0
[3]; rate 0.0315 kg/ha
  IPOHE herbicidal rating: 3.0
[3]; rate 0.0630 kg/ha
  IPOHE herbicidal rating: 9.0
[4]; rate 0.0625 kg/ha
  CHEAL preemergence herbicidal rating: 9.0
[4]; rate 0.1250 kg/ha
  CHEAL preemergence herbicidal rating: 9.0
[4]; rate 0.2500 kg/ha
  CHEAL preemergence herbicidal rating: 9.0
ECHCG (Barnyardgrass) [5]; rate 0.0625 kg/ha
  ECHCG preemergence herbicidal rating: 0.0
ECHCG (Barnyardgrass) [5]; rate 0.1250 kg/ha
  ECHCG preemergence herbicidal rating: 0.0
ECHCG (Barnyardgrass) [5]; rate 0.2500 kg/ha
  ECHCG preemergence herbicidal rating: 0.0
[6]; rate 0.0625 kg/ha
  TRZAWR preemergence herbicidal rating: 0.0
[6]; rate 0.1250 kg/ha
  TRZAWR preemergence herbicidal rating: 0.0
[6]; rate 0.2500 kg/ha
  TRZAWR preemergence herbicidal rating: 0.0
SETVI (Foxtail, Green); rate 0.0158 kg/ha
  SETVI herbicidal rating: 1.0
SETVI (Foxtail, Green); rate 0.0315 kg/ha
  SETVI herbicidal rating: 1.0
SETVI (Foxtail, Green); rate 0.0630 kg/ha
  SETVI herbicidal rating: 4.0
CASOB (Sicklepod); rate 0.0625 kg/ha
  CASOB preemergence herbicidal rating: 0.0
CASOB (Sicklepod); rate 0.1250 kg/ha
  CASOB preemergence herbicidal rating: 0.0
CASOB (Sicklepod); rate 0.2500 kg/ha
  CASOB preemergence herbicidal rating: 9.0
CYPSE (Flatsedge); rate 0.1160 kg/ha
  Herbicidal rating CYPSE: 5.0
CYPSE (Flatsedge); rate 0.2310 kg/ha
  Herbicidal rating CYPSE: 5.0
CYPSE (Flatsedge); rate 0.4630 kg/ha
  Herbicidal rating CYPSE: 5.0
ZEAMX (Corn, Field) [7]; rate 0.0625 kg/ha
  ZEAMX preemergence herbicidal rating: 0.0
ZEAMX (Corn, Field) [7]; rate 0.1250 kg/ha
  ZEAMX preemergence herbicidal rating: 0.0
ZEAMX (Corn, Field) [7]; rate 0.2500 kg/ha
  ZEAMX preemergence herbicidal rating: 0.0
[8]; rate 0.0625 kg/ha
  IPOHE preemergence herbicidal rating: 0.0
[8]; rate 0.1250 kg/ha
  IPOHE preemergence herbicidal rating: 0.0
[8]; rate 0.2500 kg/ha
  IPOHE preemergence herbicidal rating: 2.0
ORYSAT (Rice, Tebonnet); rate 0.0158 kg/ha
  ORYSAT herbicidal rating: 2.0
ORYSAT (Rice, Tebonnet); rate 0.0315 kg/ha
  ORYSAT herbicidal rating: 2.0
ORYSAT (Rice, Tebonnet); rate 0.0630 kg/ha
  ORYSAT herbicidal rating: 3.0
[9]; rate 0.0158 kg/ha
  CHEAL herbicidal rating: 4.0
[9]; rate 0.0315 kg/ha
  CHEAL herbicidal rating: 6.0
[9]; rate 0.0630 kg/ha
  CHEAL herbicidal rating: 7.0
ECHCG (Barnyardgrass) [10]; rate 0.0158 kg/ha
  ECHCG herbicidal rating: 1.0
ECHCG (Barnyardgrass) [10]; rate 0.0315 kg/ha
  ECHCG herbicidal rating: 1.0
ECHCG (Barnyardgrass) [10]; rate 0.0630 kg/ha
  ECHCG herbicidal rating: 2.0
[11]; rate 0.0625 kg/ha
  GLXMAW preemergence herbicidal rating: 0.0
[11]; rate 0.1250 kg/ha
  GLXMAW preemergence herbicidal rating: 0.0
[11]; rate 0.2500 kg/ha
  GLXMAW preemergence herbicidal rating: 4.0
ZEAMX (Corn, Field) [12]; rate 0.0158 kg/ha
  ZEAMX herbicidal rating: 4.5
ZEAMX (Corn, Field) [12]; rate 0.0315 kg/ha
  ZEAMX herbicidal rating: 5.0
ZEAMX (Corn, Field) [12]; rate 0.0630 kg/ha
  ZEAMX herbicidal rating: 5.5
